Key:
Format in all cases: in vivo
[1] = tested on: Podosphaera leucotricha (PODOLE); test: Field assessment of apple powdery mildew; conditions: apples, 5% EC + ETHOMEEN T18H
Description: Assessment of compound I of PODOLE on apples was performed in two separate field trials. For the first trial, a fungicidal treatment containing a 5% EC formulation of compound I plus an adjuvant (ETHOMEEN T18H, 50% w/w at 1.0% v/v), was sprayed on the plant canopy of apples (MABSD, Imperatore Dallago variety) seven times during the growing season, the first application at BBCH 61 of plant growth stage, under natural infection of powdery mildew under open field conditions. The following six applications were applied in approximately 10 day intervals. Formulations of compound I were applied at rates of 100, 150, and 200 grams of active ingredient per hectare (g ai/ha). The treatment was part of an experimental trial designed as a randomized complete block with four replications and a plot of approximately 4.2×7.5 m. Formulations of compound I were applied at water volume of 800 L/ha, using a backpack plot sprayer (TRACKSP, Andreoli Engineering) and pressurized at 450 kPa.
For the second trial, a fungicidal treatment containing a 5% EC formulation of compound I plus an adjuvant (ETHOMEEN T18H, 50% w/w at 1.0% v/v), was sprayed on the plant canopy of apples (MABSD, Imperatore Dallago variety) seven times during the growing season, the first application at BBCH 61 of plant growth stage, under natural infection of powdery mildew under open field conditions. The following six applications were applied in approximately 10 day intervals. Formulations of compound I were applied at rates of 100, 150, and 200 grams of active ingredient per hectare (g ai/ha). The treatment was part of an experimental trial designed as a randomized complete block with four replications and a plot of approximately 4.2×7.5 m. Formulations of compound I were applied at water volume of 800 L/ha, using a self-propelled multi-plot track sprayer (TRACKSP, Andreoli Engineering) and pressurized at 450 kPa.
Disease severity in both trials was assessed as the percentage of leaf incidence and leaf infection on a random selection of 100 leaves. In the first trial, powdery mildew infection was assessed three times, 3 days after application D (3DAAD), 7DAAF, and SDAAG. In the second trial, powdery mildew infection was assessed four times, 6DAAB, 2DAAD, 7DAAF and SDAAG. Area under the disease progress curve (AUDPC) was calculated for each plot using the sets of recorded visual infection data. Relative AUDPC (% control based on AUDPC) was calculated as percent of the nontreated control.

[2] = tested on: Stigmina carpophila (STIGCA); test: Field assessment of two trials for shot hole in almond (AUDPC); conditions: almond leaf incidence
Text: A fungicidal treatment containing Compound I, applied in an SC formulation (MSO built-in) and tank mixed with an adjuvant (Agnique BP-420, 50% w/w at 0.2% v/v or Adsee C80W 80%), was sprayed on almond trees (PRNDU, Winters or Carmel varieties) at growth stage BBCH71 and 72 at rates of 60, 120, 150, and 180 g ai/ha in two trials. The experimental plots were run with natural infestation. The treatments were part of experimental trials designed as a randomized complete block (RCB) with three replications and a plot of approximately 14×20 ft, both trials. Compound I was applied at water volume of 100 gal/acre, using a Mistblower sprayer (Orifice nozzle 0.125 setting), both trials.
Percent Leaf incidence (calculated from the number of visual diseased leaves per 30 (Winters) or 50 (Carmel) leaves per tree on whole plot) was assessed three or four times during the trial. Area under the disease progress curve (AUDPC) was calculated for each plot using the sets of recorded leaf incidence data. Relative percent control was calculated from the AUDPC as percent of the untreated control using Abbotts.

[3] = tested on: Monilinia fructicola (MONIFC); test: Field microplot assessment on brown rot on peaches; conditions: field grown peaches, 17 days after first application
Text: A field trial assessing the utility of Compound I on rot diseases of stone fruits was also done on peaches using a microplot method, part of an experimental trial designed as a randomized complete block with four replications. In a microplot method, two mature fruits on a single branch or cluster of fruits were selected for each replication (for a total of 10 replications) instead of using an entire replication. Colored flagging identified treatments. One day before the first application, a ZipLoc plastic bag was placed over the fruit or fruit cluster and an inoculation mix of MONIFC was sprayed inside covering the fruits. The plastic bags were removed after 24 hours. After 24 hr, fungicidal treatments containing Compound I, applied in a 5% EC formulation and tank mixed with an adjuvant (Trycol, 50% w/w at 0.2% v/v), were then sprayed twice on peaches (PRNPS) at rates of 50, 100, and 150 grams of active ingredient per hectare (g ai/ha). The applications to the selected mature peaches were done at 14 and 7 days before harvest using a CO2 powered inoculation spray gun at a water volume of 500 L/ha. At harvest, the fruits were collected in the field and placed in plastic Tupperware containers. 150 mL of de-ionized water was poured in the bottom of the Tupperware containers and the fruits were sprayed with a light mist of water. The containers were brought to the lab, enclosed in a large trash bag to keep the humidity high, and incubated on a lab bench at approximately 23° C. The percentage of visual disease incidence and severity was assessed during the trial at 17 days after the first application.

[4] = tested on: Botrytis (BOTRSP); test: Field assessment of jacket rot in almond; conditions: MSO, almond nut infection
Description: A fungicidal treatment containing Compound I, applied in an SC formulation (MSO-built in) was sprayed on almond trees (Prunus spp.) at bloom, petal fall and ca. 3 and 5 weeks after petal fall at rates of 60, 120, 150, and 180 g ai/ha. The experimental plots were conducted with a natural infestation of Botrytis. The treatments were part of an experimental trial designed as a randomized complete block (RCB) with three replications and a plot of approximately 18×18 ft. Compound I was applied at water volume of 100 gal/acre, using an Airblast sprayer. Nut infection (number of visual diseased nuts per total nuts counted per tree on whole plot) was assessed and recorded 17 days after application 4 (17 DAA4). Relative percent control was calculated as percent of the untreated control using Abbotts.

## COc1ccnc(C(=O)N[C@@H](C)C(=O)O[C@@H](C)C(c2ccc(F)cc2)c2ccc(F)cc2)c1OC(C)=O [Compound I, (S)-1,1-bis(4-fluorophenyl)propan-2-yl (3-acetoxy-4-methoxypicolinoyl)-L-alaninate]
[1]; Trial 1, 100 g ai/ha
  Percent control (AUDPC) from leaf infection assessments: B (51-75)
[1]; Trial 1, 150 g ai/ha
  Percent control (AUDPC) from leaf infection assessments: A (76-100)
[1]; Trial 1, 200 g ai/ha
  Percent control (AUDPC) from leaf infection assessments: A (76-100)
[1]; Trial 2, 100 g ai/ha
  Percent control (AUDPC) from leaf infection assessments: A (76-100)
[1]; Trial 2, 150 g ai/ha
  Percent control (AUDPC) from leaf infection assessments: A (76-100)
[1]; Trial 2, 200 g ai/ha
  Percent control (AUDPC) from leaf infection assessments: A (76-100)
[2]; 60 g ai/ha, Agnique BP420, 240 mL/ha
  Calculated Percent Control (AUDPC) of STIGCA: 45.2%
[2]; 60 g ai/ha, MSO, 120 g ai/ha
  Calculated Percent Control (AUDPC) of STIGCA: 47.9%
[2]; 120 g ai/ha, Adsee C80W, 300 g ai/ha
  Calculated Percent Control (AUDPC) of STIGCA: 44.6%
[2]; 120 g ai/ha, Agnique BP420, 480 mL/ha
  Calculated Percent Control (AUDPC) of STIGCA: 49%
[2]; 120 g ai/ha, MSO, 240 g ai/ha
  Calculated Percent Control (AUDPC) of STIGCA: 48.3%
[2]; 150 g ai/ha, Agnique BP420, 600 mL/ha
  Calculated Percent Control (AUDPC) of STIGCA: 41.1%
[2]; 150 g ai/ha, MSO, 300 g ai/ha
  Calculated Percent Control (AUDPC) of STIGCA: 45.1%
[2]; 180 g ai/ha, Agnique BP420, 720 mL/ha
  Calculated Percent Control (AUDPC) of STIGCA: 30.1%
[2]; 180 g ai/ha, MSO, 360 g ai/ha
  Calculated Percent Control (AUDPC) of STIGCA: 49.0%
[3]; 50 g ai/ha
  MONIFC, percentage of area affected on peaches (Severity): 87.3%
[3]; 100 g ai/ha
  MONIFC, percentage of area affected on peaches (Severity): 57.0%
[3]; 150 g ai/ha
  MONIFC, percentage of area affected on peaches (Severity): 69.5%
[4]; 60 g ai/ha, 120 g ai/ha
  Calc Percent Control of BOTRSP 17 DAA4: 37.9%
[4]; 120 g ai/ha, 240 g ai/ha
  Calc Percent Control of BOTRSP 17 DAA4: 40.0%
[4]; 150 g ai/ha, 300 g ai/ha
  Calc Percent Control of BOTRSP 17 DAA4: 51.6%
[4]; 180 g ai/ha, 360 g ai/ha
  Calc Percent Control of BOTRSP 17 DAA4: 53.5%
